Experiment [1] has as its target T1, pseudolysin (PLN) (Pseudomonas aeruginosa, UniProt P14756).
T1 construct: purchased Calbiochem (San Diego, CA, USA)
Put plainly: Inhibition of pseudolysin (PLN), substrate McaRPPGFSAFK(Dnp)-OH. The experiment is classed as biochemical. As to the method:
McaPLGL(Dpa)AR-NH2 was used as a substrate for MMP-9 and MMP-14, while McaRPPGFSAFK(Dnp)-OH was used as substrate for ALN, PLN and TLN. The reaction velocities/initial rates (v) were determined at 37 °C, at an excitation wavelength of 320 nm and an emission wavelength of 405 nm with a slit width of 10 nm using either a Perkin Elmer LS 50 Luminescence spectrometer and the FL WinLab Software Package (Perkin Elmer) or a Clario Star microplate reader (CLARIOstar® BMG LABTECH).
The test compounds were dissolved in 100% DMSO giving a concentration of 10 mM. A fixed substrate concentration of 4.0 µM in a total volume of 100 µL 0.1 M Hepes pH 7.5, 10 mM CaCl2, 0.005% Brij-35 and 1.0% DMSO, were used in all assays, except for ALN where the substrate concentration was 5.0 µM. The fixed enzyme concentrations were as follows; 0.05 nM MMP-9, 1.0 nM MMP-14, 1.4 nM ALN, 0.5 nM PLN and 0.21 nM TLN. Time-dependent inhibitory experiments without and with 100 μM of testing compounds were performed as follows. Compounds were either pre-incubated with the proteases for 15, 30 and 45 min at room temperature and the enzymatic reaction was started by adding the substrate, or not pre-incubated, i.e., the reaction was started by adding the protease to the mixture of substrate and compound. Control tests without compound present were performed in the same way. The reaction was followed for 30 min at 37 °C.
Enzymes with and without inhibitor were pre-incubated for 30 min at room temperature, and initial rate assays were performed as described above. Assays were performed using a Clario Star microplate reader (CLARIOstar® BMG LABTECH). The IC50 values were calculated in Graph Pad Prism 5 using Equation (1):(1) vi/v0=1/(1+10^(pIC50−pI)) where vi is the enzyme activity in the presence of inhibitor, v0 the activity in the absence of inhibitor, pI = −log [Inhibitor] in M and pIC50 = −log IC50 in M. All experiments were performed in at least triplicate.

The target of experiment [2] is T2, MMP-14 (Homo sapiens, UniProt P50281).
T2 construct: human MT1-MMP/MMP-14 (catalytic domain); purchased Calbiochem (San Diego, CA, USA)
Put plainly: Time-dependent slow, reversible/irreversible binding of TPA to MMP-14 (pre-incubation and micro-dialysis). The experiment is classed as biochemical. The conditions noted are these: for vi/v0 MMP-14: 100 μM TPA. As to the method: We tested if TPA is a time-dependent irreversible or reversible inhibitor of MMP-14. In these experiments, two different concentrations of MMP-14 (45 and 5.6 nM) were pre-incubated up to 48 min at 37 °C with 10.0 and 11.1 μM of TPA, respectively, as described in Materials and Methods. As controls, the same amount of MMP-14 (without TPA but with the same concentration of DMSO) was identically pre-incubated at 37 °C. […] In the presence of 100 μM TPA, vi/v0 was 0.61 after 2 min and 0.03 after 11 min pre-incubation at 37 °C. To determine whether the observed time-dependent inhibition was due to reversible or irreversible inhibition, a solution of 45 nM MMP-14 was first pre-incubated for approximately 40 min at 37 °C with 10 μM TPA (1% DMSO in assay buffer, pH 7.5). As a control, MMP-14 (without TPA but with the same concentration of DMSO) was also pre-incubated for approximately 40 min at 37 °C. […]
In pre-incubation tests with high concentration of MMP-14, 90 μL 50 nM MMP-14 was mixed with 9.0 μL 110 μM TPA (dissolved in 0.1 M Hepes pH 7.5 containing 10 mM CaCl2, 0.005% Brij-35 and 10% DMSO) and incubated at 37 °C for up to 48 min. […] At different time points, 10 μL of the enzyme (with and without TPA) was added to 90 μL of 0.1 M Hepes pH 7.5 containing 10 mM CaCl2, 0.005% Brij-35 and 11.1 μM ES001 and the initial rate reaction velocity (v) was determined as described in Section 3.4. using a Perkin Elmer LS 50 Luminescence spectrometer. […]
In pre-incubation tests with a low concentration of MMP-14, 60 μL 50 nM MMP-14 was mixed with 420 μL 0.1 M Hepes pH 7.5 (containing 10 mM CaCl2, 0.005% Brij-35) and 60 μL of either 0.1 M Hepes pH 7.5 containing 10 mM CaCl2, 0.005% Brij-35 and 10% DMSO (control) or 60 μL 100 μM TPA (dissolved in 0.1 M Hepes pH 7.5 containing 10 mM CaCl2, 0.005% Brij-35 and 10% DMSO). At different time points, 90 μL of the enzyme (with and without TPA) was mixed with 10 μL 100 μM ES001 and the initial rate of the reaction was determined as described above. […]

T1 sequence (P14756 198-498): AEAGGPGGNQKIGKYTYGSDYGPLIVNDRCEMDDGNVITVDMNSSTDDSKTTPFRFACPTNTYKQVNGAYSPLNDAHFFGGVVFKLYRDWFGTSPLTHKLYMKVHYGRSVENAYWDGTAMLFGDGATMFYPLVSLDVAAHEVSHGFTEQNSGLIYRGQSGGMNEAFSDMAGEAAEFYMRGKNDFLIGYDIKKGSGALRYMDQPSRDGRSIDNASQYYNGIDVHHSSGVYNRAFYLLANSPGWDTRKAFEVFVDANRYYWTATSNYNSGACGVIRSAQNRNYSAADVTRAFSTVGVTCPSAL

In experiment [1], `c1ccc(CN(Cc2ccccn2)Cc2ccccn2)nc1` [TPA, tri(2-pyridinemethyl)amine, reference compound] yielded a Ki of 5 ± 2 µM. The “vi/v0 MMP-14” value in experiment [2] (2 min pre-incubation at 37 °C) is 0.61; in experiment [2] (11 min pre-incubation at 37 °C), 0.03. The “type of inhibition of MMP-14” value in experiment [2] (pre-incubation 37 °C, micro-dialysis 4 °C) is given as “slow, reversible inhibitor”.

What is called Ki is the equilibrium dissociation constant of an inhibitor or competing ligand from its target. The low end stands for higher affinity, the high end for lower affinity.

Source of the values: PMC8746695, “Zinc-Chelating Compounds as Inhibitors of Human and Bacterial Zinc Metalloproteases” (Molecules, 2021).
